Results reported in patent publication US8618153B2, “Hepatitis C virus inhibitors” (Bristol-Myers Squibb Company, priority 2009, dated 2013).

test system: HCV 1b genotype; assay: HCV Replicon assay (HCV-neo replicon cells), 1b genotype; assay type: cell-based; conditions: Hepatitis C virus; HCV 1b genotype replicon; value given as range class; read-out: 1b EC50 (in μM or range)
Method in brief: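 HCV-neo replicon cells, wild-type and carrying NS5A mutations, used to measure compound inhibition of replication; luciferase reporter replicon formats also applied.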

| SMILES | EC50 [µM] |
| --- | --- |
| COC(=O)N[C@H](C(=O)N1CCC[C@H]1c1nc(CCc2ccc(CCc3cnc([C@@H]4CCCN4C(=O)[C@@H](NC(=O)OC)[C@@H](C)OC)[nH]3)cc2)c[nH]1)[C@@H](C)OC [Example 44, methyl ((1S,2R)-2-methoxy-1-(((2S)-2-(4-(2-(4-(2-(2-((2S)-1-(N-(methoxycarbonyl)-O-methyl-L-threonyl)-2-pyrrolidinyl)-1H-imidazol-4-yl)ethyl)phenyl)ethyl)-1H-imidazol-2-yl)-1-pyrrolidinyl)carbonyl)propyl)carbamate] | 0.01 to 10 |
| COC(=O)N[C@@H](C(=O)N1CCC[C@H]1c1ncc(C#Cc2ccc(-c3cnc([C@@H]4CCCN4C(=O)[C@H](NC(=O)OC)c4ccccc4)[nH]3)cc2)[nH]1)c1ccccc1 [Example M1, Methyl ((1R)-2-((2S)-2-(4-(4-((2-((2S)-1-((2R)-2-((methoxycarbonyl)amino)-2-phenylacetyl)-2-pyrrolidinyl)-1H-imidazol-4-yl)ethynyl)phenyl)-1H-imidazol-2-yl)-1-pyrrolidinyl)-2-oxo-1-phenylethyl)carbamate] | < 0.001 |
| COC(=O)N[C@@H](C(=O)N1CCC[C@H]1c1ncc(CCc2ccc(-c3cnc([C@@H]4CCCN4C(=O)[C@H](NC(=O)OC)c4ccccc4)[nH]3)cc2)[nH]1)c1ccccc1 [Example M2, Methyl ((1R)-2-((2S)-2-(4-(4-(2-(2-((2S)-1-((2R)-2-((methoxycarbonyl)amino)-2-phenylacetyl)-2-pyrrolidinyl)-1H-imidazol-4-yl)ethyl)phenyl)-1H-imidazol-2-yl)-1-pyrrolidinyl)-2-oxo-1-phenylethyl)carbamate] | < 0.001 |
| CN(C)[C@@H](C(=O)N1CCC[C@H]1c1ncc(CCc2ccc(-c3cnc([C@@H]4CCCN4C(=O)[C@@H](c4ccccc4)N(C)C)[nH]3)cc2)[nH]1)c1ccccc1 [Example M3, [(1R)-2-((2S)-2-(4-(4-(2-(2-((2S)-1-((2R)-2-(Dimethylamino)-2-phenylacetyl)-2-pyrrolidinyl)-1H-imidazol-4-yl)ethyl)phenyl)-1H-imidazol-2-yl)-1-pyrrolidinyl)-N,N-dimethyl-2-oxo-1-phenylethanamine]] | 0.001 to 0.01 |
| COC(=O)N[C@H](C(=O)N1CCC[C@H]1c1ncc(C#Cc2ccc(C#Cc3cnc([C@@H]4CCCN4C(=O)[C@@H](NC(=O)OC)C(C)C)[nH]3)cc2)[nH]1)C(C)C [Example M4, Methyl((1S)-1-(((2S)-2-(4-((4-((2-((2S)-1-((2S)-2-((methoxycarbonyl)amino)-3-methylbutanoyl)-2-pyrrolidinyl)-1H-imidazol-4-yl)ethynyl)phenyl)ethynyl)-1H-imidazol-2-yl)-1-pyrrolidinyl)carbonyl)-2-methylpropyl)carbamate] | < 0.001 |
| COC(=O)N[C@H](C(=O)N1CCC[C@H]1c1nc(C#Cc2ccc(C#Cc3c[nH]c([C@@H]4CCCN4C(=O)[C@@H](NC(=O)OC)[C@@H](C)OC)n3)cc2)c[nH]1)[C@@H](C)OC [Example M5, Methyl ((1S,2R)-2-methoxy-1-(((2S)-2-(4-((4-((2-((2S)-1-(N-(methoxycarbonyl)-O-methyl-L-threonyl)-2-pyrrolidinyl)-1H-imidazol-4-yl)ethynyl)phenyl)ethynyl)-1H-imidazol-2-yl)-1-pyrrolidinyl)carbonyl)propyl)carbamate] | < 0.001 |
| COC(=O)N[C@@H](C)C(=O)N1CCC[C@H]1c1nc(C#Cc2ccc(C#Cc3c[nH]c([C@@H]4CCCN4C(=O)[C@H](C)NC(=O)OC)n3)cc2)c[nH]1 [Example M6, Methyl ((1S)-2-((2S)-2-(4-((4-((2-((2S)-1-(N-(methoxycarbonyl)-L-alanyl)-2-pyrrolidinyl)-1H-imidazol-4-yl)ethynyl)phenyl)ethynyl)-1H-imidazol-2-yl)-1-pyrrolidinyl)-1-methyl-2-oxoethyl)carbamate] | 0.001 to 0.01 |
| COCC[C@H](NC(=O)OC)C(=O)N1CCC[C@H]1c1nc(C#Cc2ccc(C#Cc3c[nH]c([C@@H]4CCCN4C(=O)[C@H](CCOC)NC(=O)OC)n3)cc2)c[nH]1 [Example M7, Methyl ((1S)-3-methoxy-1-(((2S)-2-(4-((4-((2-((2S)-1-(N-(methoxycarbonyl)-O-methyl-L-homoseryl)-2-pyrrolidinyl)-1H-imidazol-4-yl)ethynyl)phenyl)ethynyl)-1H-imidazol-2-yl)-1-pyrrolidinyl)carbonyl)propyl)carbamate] | < 0.001 |
